# “Also recorded” adds a separate entry of the source. Read-outs that look alike come from different tables or passages of the source.
# How the values were obtained:
# [1] = target: T1, WT CB2 (Homo sapiens, UniProt P34972); assay: pGlo-Sensor-22F cAMP accumulation assay, WT CB2; assay type: cell-based; conditions: for EC50: agonist dose-response on CB2, vehicle control (no Ec2la), read-out: pEC50/pIC50 values (converted)
# T1 construct: expressed in transfected cells; host or cells: HEK293
# Text: Compounds were drawn using ChemDraw.
# [2] = target: CB2 mutant M157A (Homo sapiens, UniProt P34972, M157A); assay: cAMP accumulation assay, CB2 mutant M157A; conditions: in the presence of JWH133
# Sequence of CB2 mutant M157A (P34972 whole entry M157A): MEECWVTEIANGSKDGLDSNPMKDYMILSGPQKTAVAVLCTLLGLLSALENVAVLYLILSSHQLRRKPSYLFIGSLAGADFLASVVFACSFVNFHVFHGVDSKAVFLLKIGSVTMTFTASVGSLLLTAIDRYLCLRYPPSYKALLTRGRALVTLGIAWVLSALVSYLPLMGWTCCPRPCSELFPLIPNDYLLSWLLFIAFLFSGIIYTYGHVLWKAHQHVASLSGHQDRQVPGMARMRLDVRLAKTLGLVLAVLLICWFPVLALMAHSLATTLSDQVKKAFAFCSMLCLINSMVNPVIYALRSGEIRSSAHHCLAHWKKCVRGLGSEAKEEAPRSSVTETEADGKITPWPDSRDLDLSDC
# Description: (§2) Primers were designed for the following mutations: F72^2.42A, L125^3.44A, L126^3.45A, I129^3.48A, L133^3.52A, T153^4.45A, I156^4.48A, M157^4.49A, L160^4.52A, F197^5.46A, and L201^5.50A (Table S3). Polymerase chain reactions (PCR) using the Bio-Rad T100TM Thermal Cycler and Applied Biosystems Veriti 96 Well Thermal Cycler to introduce the desired mutations within 3× HA-CB2 (cDNA).
# (§3) HEK293 (ATCC CRL-1573) adherent cells were passaged using Dulbecco’s Modified Eagle’s Medium (DMEM)-high glucose (Sigma-Aldrich). This DMEM was supplemented with penicillin (100 U/mL), streptomycin (100 μg/mL), and heat inactivated fetal bovine serum (FBS, 10%) (PAN-Biotech). […]
# (§4) After 24 h of incubation, the transfected HEK293 cells were then subject to starvation (2 h) with serum-free DMEM (100 μL/well). […] Bioluminescence was then measured using the CLARIOstar Plus Plate Reader (BMG LabTech, Germany). Prior to injecting the treatment ligands, approximately 5–10 basal readings were performed until stabilization was reached. Bioluminescence was measured for a total of 45 cycles (1 min per cycle, 1 s integration time, without filter, a fixed gain of 3000 and autofocus).
# (§5) Data from signaling experiments were analyzed using GraphPad Prism, version 9.4.1 software (GraphPad Software, Inc.). […]
# [3] = target: CB2 mutant I129A (Homo sapiens, UniProt P34972, I129A); assay: cAMP accumulation assay, CB2 mutant I129A; conditions: in the presence of JWH133
# Sequence of CB2 mutant I129A (P34972 whole entry I129A): as the sequence (P34972 whole entry M157A) above, with I129A, A157M counted along it
# Description: as §2, §3, §4, §5
# [4] = target: CB2 mutant L160A (Homo sapiens, UniProt P34972, L160A); assay: cAMP accumulation assay, CB2 mutant L160A; conditions: in the presence of JWH133
# Sequence of CB2 mutant L160A (P34972 whole entry L160A): as the sequence (P34972 whole entry M157A) above, with A157M, L160A counted along it
# Description: as §2, §3, §4, §5
# [5] = target: CB2 mutant L126A (Homo sapiens, UniProt P34972, L126A); assay: cAMP accumulation assay, CB2 mutant L126A; conditions: in the presence of JWH133
# Sequence of CB2 mutant L126A (P34972 whole entry L126A): as the sequence (P34972 whole entry M157A) above, with L126A, A157M counted along it
# Description: as §2, §3, §4, §5
# [6] = target: CB2 mutant F197A (Homo sapiens, UniProt P34972, F197A); assay: cAMP accumulation assay, CB2 mutant F197A; conditions: in the presence of JWH133
# Sequence of CB2 mutant F197A (P34972 whole entry F197A): as the sequence (P34972 whole entry M157A) above, with A157M, F197A counted along it
# Description: as §2, §3, §4, §5
# [7] = target: CB2 mutant T153A (Homo sapiens, UniProt P34972, T153A); assay: cAMP accumulation assay, CB2 mutant T153A; conditions: in the presence of JWH133
# Sequence of CB2 mutant T153A (P34972 whole entry T153A): as the sequence (P34972 whole entry M157A) above, with T153A, A157M counted along it
# Description: as §2, §3, §4, §5
# [8] = target: CB2 mutant L125A (Homo sapiens, UniProt P34972, L125A); assay: cAMP accumulation assay, CB2 mutant L125A; conditions: in the presence of JWH133
# Sequence of CB2 mutant L125A (P34972 whole entry L125A): as the sequence (P34972 whole entry M157A) above, with L125A, A157M counted along it
# Description: as §2, §3, §4, §5
# [9] = target: T1, WT CB2; assay: AlphaLISA SureFire Ultra p-ERK 1/2 assay, WT CB2; assay type: cell-based; conditions: 1 μM JWH133 + 10 μM Ec2la
# Description: (§1) Culture media were removed and replaced with allosteric modulator (45 μL/well) prepared in serum-free DMEM and incubated (RT, 30 min). The cells were then stimulated with agonist (5 μL/well) prepared in serum-free DMEM and incubated (RT, 10 min). All subsequent reagents were used from the AlphaLISA SureFire Ultra p-ERK 1/2 (Thr202/Tyr204) Assay Kit (PerkinElmer). The medium was removed, freshly prepared 1× lysis buffer (50 μL/well) was added, and the plate was agitated on a plate shaker (RT, 10 min, 350 rpm). The lysates (10 μL) were transferred to a 384-well OptiPlate (PerkinElmer), and the acceptor mix (5 μL) was added to each well under subdued light. The plate was sealed, covered with foil, and incubated (RT, 1 h). Donor mix (5 μL) was added to each well under subdued light. The plate was sealed, covered with foil, and incubated in the dark (RT, 1 h). The plate was read using CLARIOstar Plus Plate Reader (BMG LabTech, Germany) using standard AlphaLISA settings with an […].
# [10] = system: CB2 single mutants; assay: AlphaLISA SureFire Ultra p-ERK 1/2 assay, CB2 single mutants; assay type: cell-based, human; conditions: 1 μM JWH133 + 10 μM Ec2la
# Description: as §1
# [11] = target: CB2 mutant F72A (Homo sapiens, UniProt P34972, F72A); assay: cAMP accumulation assay, CB2 mutant F72A; conditions: in the presence of JWH133
# Sequence of CB2 mutant F72A (P34972 whole entry F72A): as the sequence (P34972 whole entry M157A) above, with F72A, A157M counted along it
# Description: as §2, §3, §4, §5
# [12] = system: CB2; set-up: method as in PMID 29990428; conditions: CB2, Chinese hamster ovary cells; cited from earlier work
# [13] = target: CB2 mutant L201A (Homo sapiens, UniProt P34972, L201A); assay: cAMP accumulation assay, CB2 mutant L201A; conditions: in the presence of JWH133
# Sequence of CB2 mutant L201A (P34972 whole entry L201A): as the sequence (P34972 whole entry M157A) above, with A157M, L201A counted along it
# Description: as §2, §3, §4, §5
# [14] = system: CB2 double mutants; assay: AlphaLISA SureFire Ultra p-ERK 1/2 assay, CB2 double mutants; assay type: cell-based, human; conditions: 1 μM JWH133 + 10 μM Ec2la
# Description: as §1
# [15] = system: CB2; set-up: method as in PMID 29990428; conditions: agonists CP 55,940 and 2-AG; cited from earlier work
# [16] = system: CB1; set-up: method as in PMID 29990428; conditions: CB1, Chinese hamster ovary cells; cited from earlier work
# [17] = target: CB2 mutant L133A (Homo sapiens, UniProt P34972, L133A); assay: cAMP accumulation assay, CB2 mutant L133A; conditions: in the presence of JWH133
# Sequence of CB2 mutant L133A (P34972 whole entry L133A): as the sequence (P34972 whole entry M157A) above, with L133A, A157M counted along it
# Description: as §2, §3, §4, §5
# [18] = system: CB1 receptor; set-up: method as in PMID 22343625; conditions: CB1, in the presence of orthosteric ligand CP 55,940; cited from earlier work
# [19] = system: CB1 receptor; set-up: method as in PMID 22343625; conditions: cited from earlier work
# T1 sequence (P34972 whole entry): as the sequence (P34972 whole entry M157A) above, with A157M counted along it
compound,measurement,setting,value
"CCCCC/C=C\C/C=C\C/C=C\C/C=C\CCCC(=O)OC(CO)CO [2-AG, 2-arachidonoylglycerol]",EC50,[1]; Figure S2,48.3 nM
same,EC50,[1]; Figure S3,202 nM
"C=C(C)[C@@H]1CCC(C)=C[C@H]1c1c(O)cc(CCCCC)cc1O [CBD, Cannabidiol]",allosteric signal in cAMP assay,[2],loss and/or alteration in the allosteric signal
same,allosteric signal in cAMP assay,[3],loss and/or alteration in the allosteric signal
same,allosteric signal in cAMP assay,[4],still demonstrating an allosteric effect
same,allosteric signal in cAMP assay,[5],loss and/or alteration in the allosteric signal
same,allosteric signal in cAMP assay,[6],loss and/or alteration in the allosteric signal
same,allosteric signal in cAMP assay,[7],still demonstrating an allosteric effect
same,allosteric effect on cAMP signaling,[1],acts as a NAM
same,orthosteric activity in cAMP assay,[1],acting as an agonist
same,allosteric signal in cAMP assay,[8],loss and/or alteration in the allosteric signal
Cc1c(Br)cn(Cc2ccc(F)cc2)c(=O)c1NC(=O)C1CCCCCC1 [Ec2la],allosteric effect on p-ERK 1/2 signaling,[9],acts as a NAM
same,allosteric effect on p-ERK 1/2 signaling,[10],either no effect or an increase in the p-ERK 1/2 signal
same,allosteric signal in cAMP assay,[2],loss and/or alteration in allosteric signal
same,allosteric signal in cAMP assay,[11],loss and/or alteration in allosteric signal
same,allosteric signal in cAMP assay,[3],loss and/or alteration in allosteric signal
same,allosteric signal in cAMP assay,[4],loss and/or alteration in allosteric signal
same,allosteric signal in cAMP assay,[5],loss and/or alteration in allosteric signal
same,"modality in [3H]CP 55,940 binding studies",[12],PAM
same,allosteric signal in cAMP assay,[13],still demonstrating an allosteric effect
same,allosteric signal in cAMP assay,[6],loss and/or alteration in allosteric signal
same,allosteric effect on p-ERK 1/2 signaling,[14],either no effect to the allosteric modulator-induced changes on the signal or a slight decrease in the signal
same,effect on agonist-stimulated [35S]GTPγS binding,[15],greatly enhanced
same,"modality in [3H]CP 55,940 binding studies",[16],PAM
same,allosteric signal in cAMP assay,[7],still demonstrating an allosteric effect
same,allosteric signal in cAMP assay,[17],loss and/or alteration in allosteric signal
same,allosteric effect on cAMP signaling,[1],possible PAM-antagonistic effect; also recorded: acts as a PAM
same,allosteric effect on cAMP signaling at nanomolar concentrations,[1],did not demonstrate an allosteric effect; also recorded: no allosteric effect
same,allosteric effect on cAMP signaling,"[1]; WT CB2, in the presence of 2-AG, Ec2la 1 and 10 μM",negative allosteric effect; also recorded: negative allosteric shift
same,allosteric effect on cAMP signaling,"[1]; WT CB2, in the presence of CP 55,940, Ec2la 1 and 10 μM",slight negative allosteric effect; also recorded: negative allosteric shift
same,allosteric effect on cAMP signaling,"[1]; WT CB2, in the presence of JWH133, modulator 0.1, 1, 10 μM",acts like a NAM
same,allosteric signal in cAMP assay,[8],still demonstrating an allosteric effect
CCc1c(C(=O)NCCc2ccc(N3CCCCC3)cc2)[nH]c2ccc(Cl)cc12 [ORG27569],allosteric effect with radioligand binding,[18],negative allosteric effect
same,allosteric effect in ERK 1/2 signaling,[19],positive allosteric effect

# Source: publication PMC11833715, “Identification of a Cannabinoid Receptor 2 Allosteric Site Using Computational Modeling and Pharmacological Analysis” (ACS Pharmacology & Translational Science, 2025)
